Numbers after ± are expanded uncertainties.
What was measured:
[1] = for Normal melting temperature: DTA
[2] = Molar enthalpy of transition or fusion; details: DSC
[3] = xn = mol fraction of the nth substance listed; details: 298.15 K, 77 kPa, Crystal of unknown type, Transient plane heat source method

O=C(O)CCCCCCC(=O)O [1,8-octanedioic acid]
Normal melting temperature ([1]; Crystal 1): 140.63 ± 2 °C | Triple point temperature ([1]; Crystal 2, DSC): 405.59 ± 2.1 K | Molar enthalpy of transition or fusion ([2]; Crystal 1): 6.94 ± 0.717 kcal/mol | Molar enthalpy of transition or fusion ([2]; Crystal 2): 2.07 ± 0.215 kcal/mol

O=C(O)CCCCCCC(=O)O [1,8-octanedioic acid] + CCCCCCCCCCCCCCCCCC(=O)O
thermal conductivity ([3]; x2 = 0.936): 0.172 ± 0.013 W/m/K

O=C(O)CCCCC(=O)O [1,6-hexanedioic acid]
Normal melting temperature ([1]; Crystal): 150.17 ± 2 °C | Molar enthalpy of transition or fusion ([2]; Crystal): 8.57 ± 0.884 kcal/mol

O=C(O)CCCCCCCCC(=O)O [1,10-decanedioic acid]
Normal melting temperature ([1]; Crystal): 131.8 ± 2 °C | Molar enthalpy of transition or fusion ([2]; Crystal): 10.6 ± 1.08 kcal/mol

O=C(O)CCCCCCCCC(=O)O [1,10-decanedioic acid] + CCCCCCCCCCCCCCCCCC(=O)O
thermal conductivity ([3]; x2 = 0.945): 0.1802 ± 0.013 W/m/K

CCCCCCCCCCCCCCCCCC(=O)O [octadecanoic acid]
Normal melting temperature ([1]; Crystal): 69 ± 2 °C | Molar enthalpy of transition or fusion ([2]; Crystal): 13.7 ± 1.39 kcal/mol

CCCCCCCCCCCCCCCCCC(=O)O [octadecanoic acid] + O=C(O)CCCCC(=O)O
thermal conductivity ([3]; x1 = 0.962): 0.1439 ± 0.011 W/m/K

Source: the NIST ThermoML archive (doi:10.1016/j.jct.2018.01.008)
